Reference: patent publication US8778939B2, “Compounds” (Glaxo Group Limited, priority 2009, dated 2014)

What was measured:
[1] = molecular target: T1, 6His-Tev-LRRK2 (1326-2527) (Homo sapiens, UniProt Q5S007); experiment: LRRK2 AlphaScreen desensitised protein substrate assay; type: biochemical; conditions: excess of ATP present (2 mM ATP); read-out: pIC50 in the LRRK2 alphascreen desensitised protein substrate assay (converted)
T1 construct: A LRRK2 cDNA encoding residues 1326-2527 was received from Dundee University; made in house; host or cells: Spodoptera frugiperda (Sf9) insect cells, baculovirus
T1 sequence (Q5S007 1326-2527): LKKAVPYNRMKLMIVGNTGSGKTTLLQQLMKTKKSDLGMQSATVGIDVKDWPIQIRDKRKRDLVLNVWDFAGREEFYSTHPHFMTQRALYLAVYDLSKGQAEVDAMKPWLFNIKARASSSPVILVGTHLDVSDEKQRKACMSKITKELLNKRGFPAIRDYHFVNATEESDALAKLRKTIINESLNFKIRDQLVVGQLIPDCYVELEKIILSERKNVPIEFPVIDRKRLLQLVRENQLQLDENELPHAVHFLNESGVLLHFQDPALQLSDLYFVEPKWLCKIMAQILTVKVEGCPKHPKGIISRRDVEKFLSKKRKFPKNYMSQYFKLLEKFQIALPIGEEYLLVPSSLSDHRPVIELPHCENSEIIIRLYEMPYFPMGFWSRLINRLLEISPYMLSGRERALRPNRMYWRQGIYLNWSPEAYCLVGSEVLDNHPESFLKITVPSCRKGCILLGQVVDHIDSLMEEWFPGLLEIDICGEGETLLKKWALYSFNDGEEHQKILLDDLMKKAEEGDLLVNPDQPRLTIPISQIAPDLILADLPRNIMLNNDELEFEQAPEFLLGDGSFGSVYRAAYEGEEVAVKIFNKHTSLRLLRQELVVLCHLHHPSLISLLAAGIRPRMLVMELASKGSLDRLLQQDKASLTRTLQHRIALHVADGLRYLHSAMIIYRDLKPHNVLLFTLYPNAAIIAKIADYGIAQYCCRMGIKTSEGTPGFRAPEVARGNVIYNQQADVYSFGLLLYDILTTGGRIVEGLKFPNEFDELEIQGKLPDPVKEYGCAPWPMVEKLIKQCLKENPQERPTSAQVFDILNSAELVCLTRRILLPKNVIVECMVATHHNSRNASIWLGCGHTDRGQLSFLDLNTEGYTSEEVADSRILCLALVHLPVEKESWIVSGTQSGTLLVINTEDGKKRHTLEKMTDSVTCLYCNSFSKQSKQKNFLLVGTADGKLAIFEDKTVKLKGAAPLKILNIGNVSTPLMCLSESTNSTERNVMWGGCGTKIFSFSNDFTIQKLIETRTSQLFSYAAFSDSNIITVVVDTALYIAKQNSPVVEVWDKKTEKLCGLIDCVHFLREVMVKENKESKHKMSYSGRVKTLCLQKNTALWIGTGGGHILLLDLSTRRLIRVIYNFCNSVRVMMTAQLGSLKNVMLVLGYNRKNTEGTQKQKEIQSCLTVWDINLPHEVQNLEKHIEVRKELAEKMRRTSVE
Method: (§1) a) 100 nl of a 1:4 serial dilution of test compound with a top final assay concentration of 30 μM is added to certain wells in a low volume 384 well black plate. 100 nl of DMSO is used in certain wells as controls.
b) 3 μl enzyme solution (80 nM purified recombinant 6His-Tev-LRRK2 (1326-2527) in assay buffer: 50 mM Hepes (pH 7.2), 10 mM MgCl2, 150 mM NaCl, 5% glycerol, 0.0025% triton X-100 and 1 mM DTT) is added to certain wells.
Plates are then incubated for a further 1-2 hours at room temperature (incubation time varies depending upon rate and linearity of reaction with differing enzyme batches).
d) 6 μl detection solution (1:250 dilution of AlphaLisa Protein A Acceptor beads (PerkinElmer), 1:64 dilution of AlphaLisa Gluthathione Donor beads (PerkinElmer) and 1:600 dilution (dilution determined on a batch to batch basis) of Phospho-Ezrin (Thr567)/Radixin (Thr564)/Moesin (Thr558) Polyclonal Antibody (New England Biolabs) in a buffer: 50 mM Hepes (pH 7.5), 250 mM NaCl, 60 mM EDTA, 1% PEG and 0.01% Brij 35) is added to each well. Plates are then incubated for a further 2 hours at room temperature in the dark before reading on an EnVision™ plate reader with AlphaScreen HTS turbo option module and AlphaScreen settings. Data is analysed using ActivityBase software (IDBS).
LRRK2 AlphaScreen Desensitised Protein Substrate Assay
This is conducted as described for the LRRK2 alphascreen protein substrate assay, with the following differences: • 1. The concentration of ATP in the substrate solution was 2 mM. • 2. The plates were incubated for 20 minutes at room temperature following addition of the substrate solution. Pharmacological Data

[2] = molecular target: T1, 6His-Tev-LRRK2 (1326-2527); experiment: LRRK2 peptide substrate assay; type: biochemical; conditions: Biotin-LRRKtide peptide substrate, ATP at Km; read-out: pIC50 in the LRRK2 peptide substrate assay (converted)
Method: Compounds of formula (I) may be tested for in vitro kinase activity in accordance with the following assays, using the non natural, in vitro, substrates moesin and the Longer Biotin-LRRKtide. Moesin and a shorter version of the peptide were identified as substrates in Jaleel et al, (2007, Biochem J, 405: 307-317).
LRRK2 Peptide Substrate Assay
as §1
b) 3 μl enzyme solution (80 nM purified recombinant 6His-Tev-LRRK2 (1326-2527) in assay buffer: 50 mM Hepes (pH 7.2), 10 mM MgCl2, 150 mM NaCl, 5% glycerol, 0.0025% triton X-100 and 1 mM DTT) is added to certain wells. […] Plates are then incubated for a further 1-2 hours at room temperature (incubation time varies depending upon rate and linearity of reaction with differing enzyme batches). d) 6 μl detection solution (50 nM Streptavidin SureLight® APC (PerkinElmer), 4 nM Eu-W1024 labelled anti-rabbit IgG antibody (PerkinElmer), 1:500 dilution (dilution determined on a batch to batch basis) of Phospho-Ezrin (Thr567)/Radixin (Thr564)/Moesin (Thr558) Polyclonal Antibody (New England Biolabs) and 60 mM EDTA in buffer: 40 mM Hepes (pH 7.2), 150 mM NaCl, 0.03% BSA) is added to each well. Plates are then incubated for a further 2 hours at room temperature before reading on a suitable plate reader (Excitation 330 nm, emission 620 nm (Eu) and 665 nm (APC)). Data is analysed using ActivityBase software (IDBS). LRRK2 AlphaScreen Protein Substrate Assay

Cc1nocc1NC(=O)c1cc(C(=O)N2CCOCC2)ccc1OCc1ccc(F)cc1F [Example 126, 2-{[(2,4-Difluorophenyl)methyl]oxy}-N-(3-methyl-4-isoxazolyl)-5-(4-morpholinylcarbonyl)benzamide] showed an IC50 [1] of no more than 20 µM.

In the case of O=C(Nc1cccnc1)c1cc(S(=O)(=O)N2CCCCC2)ccc1OCc1ccccc1 [Example 42, 2-[(Phenylmethyl)oxy]-5-(1-piperidinylsulfonyl)-N-3-pyridinylbenzamide], the IC50 [1] is reported as greater than 25.1 µM.

Work on O=C(Nc1cccnc1)c1cc(-c2ccncc2)ccc1OCc1ccc(F)c(F)c1 [Example 109, 2-{[(3,4-Difluorophenyl)methyl]oxy}-N-3-pyridinyl-5-(4-pyridinyl)benzamide] yielded an IC50 [1] of no more than 20 µM and an IC50 [2] of no more than 0.1 µM.

For O=C(Nc1ccnnc1)c1cc(C(F)(F)F)ccc1OCc1ccc(F)cc1 [Example 132, 2-{[(4-Fluorophenyl)methyl]oxy}-N-4-pyridazinyl-5-(trifluoromethyl)benzamide], the IC50 [1] was no more than 20 µM.

O=C(Nc1cnccc1CO)c1cc(-c2ccncc2)ccc1OCc1ccccc1 [Example 56, N-[4-(Hydroxymethyl)-3-pyridinyl]-2-[(phenylmethyl)oxy]-5-(4-pyridinyl)benzamide] showed an IC50 [1] greater than 25.1 µM.

In the case of O=C(Nc1cn[nH]c1)c1cc(-c2ccncc2)ccc1OCc1ccccc1 [Example 64, 2-[(Phenylmethyl)oxy]-N-1H-pyrazol-4-yl-5-(4-pyridinyl)benzamide], the IC50 [1] is reported as no more than 20 µM.

In the case of COc1ccccc1COc1ccc(-c2cnn(C)c2)cc1C(=O)Nc1cccnc1 [Example 114, 2-({[2-(Methyloxy)phenyl]methyl}oxy)-5-(1-methyl-1H-pyrazol-4-yl)-N-3-pyridinylbenzamide], the IC50 [1] is reported as no more than 20 µM.

Molecule O=C(Nc1cccnc1F)c1cc(-c2ccncc2)ccc1OCc1ccccc1 [Example 54, N-(2-Fluoro-3-pyridinyl)-2-[(phenylmethyl)oxy]-5-(4-pyridinyl)benzamide] has an IC50 [1] of no more than 20 µM.

COC(=O)NCc1ccc(OCc2ccc(F)c(F)c2)c(C(=O)Nc2cccnc2)c1 [Example 120B, Methyl ({4-{[(3,4-difluorophenyl)methyl]oxy}-3-[(3-pyridinylamino)carbonyl]phenyl}methyl)carbamate] gave an IC50 [1] greater than 25.1 µM.

For O=C(Nc1cccnc1CO)c1cc(-c2ccncc2)ccc1OCc1ccccc1 [Example 55, N-[2-(Hydroxymethyl)-3-pyridinyl]-2-[(phenylmethyl)oxy]-5-(4-pyridinyl)benzamide], the IC50 [1] was greater than 25.1 µM.

Work on Cc1oncc1NC(=O)c1cc(-c2cnn(C)c2)ccc1OCc1ccc(F)cc1 [Example 135, 2-{[(4-Fluorophenyl)methyl]oxy}-N-(5-methyl-4-isoxazolyl)-5-(1-methyl-1H-pyrazol-4-yl)benzamide] yielded an IC50 [2] of no more than 0.1 µM.

O=C(Nc1ccnnc1)c1cc(CN2CCOCC2)ccc1OCc1ccc(F)c(F)c1 [Example 111, 2-{[(3,4-Difluorophenyl)methyl]oxy}-5-(4-morpholinylmethyl)-N-4-pyridazinylbenzamide] was tested, and the IC50 [1] was no more than 20 µM.

O=C(Nc1cccnc1)c1cc(S(=O)(=O)N2CCOCC2)ccc1OCc1ccccc1 [Example 41, 5-(4-Morpholinylsulfonyl)-2-[(phenylmethyl)oxy]-N-3-pyridinylbenzamide] gave an IC50 [1] greater than 25.1 µM.

Molecule Cc1oncc1NC(=O)c1cc(-c2ccncc2)ccc1OCc1ccccc1 [Example 62, N-(5-Methyl-4-isoxazolyl)-2-[(phenylmethyl)oxy]-5-(4-pyridinyl)benzamide] has an IC50 [1] greater than 25.1 µM.

COc1ncccc1NC(=O)c1cc(-c2ccncc2)ccc1OCc1ccccc1 [Example 53, N-[2-(Methyloxy)-3-pyridinyl]-2-[(phenylmethyl)oxy]-5-(4-pyridinyl)benzamide] was tested, and the IC50 [1] was greater than 25.1 µM.

With Cc1ccncc1NC(=O)c1cc(-c2ccncc2)ccc1OCc1ccccc1 [Example 52, N-(4-Methyl-3-pyridinyl)-2-[(phenylmethyl)oxy]-5-(4-pyridinyl)benzamide] the IC50 [1] was greater than 25.1 µM.

CN1CCN(S(=O)(=O)c2ccc(OCc3ccccc3)c(C(=O)Nc3cccnc3)c2)CC1 [Example 43, 5-[(4-Methyl-1-piperazinyl)sulfonyl]-2-[(phenylmethyl)oxy]-N-3-pyridinylbenzamide] was tested, and the IC50 [1] was greater than 25.1 µM.

With Cc1nocc1NC(=O)c1cc(C(=O)N2CCOCC2)ccc1OCc1ccc(F)cc1 [Example 124, 2-{[(4-Fluorophenyl)methyl]oxy}-N-(3-methyl-4-isoxazolyl)-5-(4-morpholinylcarbonyl)benzamide] the IC50 [1] was greater than 25.1 µM.

Molecule NCc1ccc(OCc2ccc(F)c(F)c2)c(C(=O)Nc2cccnc2)c1 [Example 120A, 5-(Aminomethyl)-2-{[(3,4-difluorophenyl)methyl]oxy}-N-3-pyridinylbenzamide] has an IC50 [1] greater than 25.1 µM.

Work on Cn1cc(NC(=O)c2cc(-c3ccncc3)ccc2OCc2ccccc2)cn1 [Example 65, N-(1-Methyl-1H-pyrazol-4-yl)-2-[(phenylmethyl)oxy]-5-(4-pyridinyl)benzamide] yielded an IC50 [1] of no more than 20 µM.

Work on O=C(Nc1cccnc1)c1cc(C(=O)N2CCCCC2)ccc1OCc1ccccc1 [Example 36, 2-[(Phenylmethyl)oxy]-5-(1-piperidinylcarbonyl)-N-3-pyridinylbenzamide] yielded an IC50 [1] of no more than 20 µM.

Cc1nocc1NC(=O)c1cc(C(F)(F)F)ccc1OCc1ccc(F)cc1 [Example 133, 2-{[(4-fluorophenyl)methyl]oxy}-N-(3-methyl-4-isoxazolyl)-5-(trifluoromethyl)benzamide] gave an IC50 [1] greater than 25.1 µM.

CN1CCN(C(=O)c2ccc(OCc3ccccc3)c(C(=O)Nc3cccnc3)c2)CC1 [Example 35, 5-[(4-Methyl-1-piperazinyl)carbonyl]-2-[(phenylmethyl)oxy]-N-3-pyridinylbenzamide] was tested, and the IC50 [1] was no more than 20 µM.

Cn1cc(NC(=O)c2cc(Br)ccc2OCc2ccccc2)cn1 [Example 50, 5-Bromo-N-(1-methyl-1H-pyrazol-4-yl)-2-[(phenylmethyl)oxy]benzamide] was tested, and the IC50 [1] was no more than 20 µM.
